We go through 2 molecules from article PMC9329436, “Optimization of the 4-anilinoquin(az)oline scaffold as epidermal growth factor receptor (EGFR) inhibitors for chordoma utilizing a toxicology profiling assay platform” (Scientific Reports, 2022).

Where two headings read alike, the source gives them in different places.

Type in all cases: biochemical
Assay [1] addresses T1, 320 wild-type protein kinases (Homo sapiens, UniProt Q99683).
T1 sequence (Q99683 1-1374): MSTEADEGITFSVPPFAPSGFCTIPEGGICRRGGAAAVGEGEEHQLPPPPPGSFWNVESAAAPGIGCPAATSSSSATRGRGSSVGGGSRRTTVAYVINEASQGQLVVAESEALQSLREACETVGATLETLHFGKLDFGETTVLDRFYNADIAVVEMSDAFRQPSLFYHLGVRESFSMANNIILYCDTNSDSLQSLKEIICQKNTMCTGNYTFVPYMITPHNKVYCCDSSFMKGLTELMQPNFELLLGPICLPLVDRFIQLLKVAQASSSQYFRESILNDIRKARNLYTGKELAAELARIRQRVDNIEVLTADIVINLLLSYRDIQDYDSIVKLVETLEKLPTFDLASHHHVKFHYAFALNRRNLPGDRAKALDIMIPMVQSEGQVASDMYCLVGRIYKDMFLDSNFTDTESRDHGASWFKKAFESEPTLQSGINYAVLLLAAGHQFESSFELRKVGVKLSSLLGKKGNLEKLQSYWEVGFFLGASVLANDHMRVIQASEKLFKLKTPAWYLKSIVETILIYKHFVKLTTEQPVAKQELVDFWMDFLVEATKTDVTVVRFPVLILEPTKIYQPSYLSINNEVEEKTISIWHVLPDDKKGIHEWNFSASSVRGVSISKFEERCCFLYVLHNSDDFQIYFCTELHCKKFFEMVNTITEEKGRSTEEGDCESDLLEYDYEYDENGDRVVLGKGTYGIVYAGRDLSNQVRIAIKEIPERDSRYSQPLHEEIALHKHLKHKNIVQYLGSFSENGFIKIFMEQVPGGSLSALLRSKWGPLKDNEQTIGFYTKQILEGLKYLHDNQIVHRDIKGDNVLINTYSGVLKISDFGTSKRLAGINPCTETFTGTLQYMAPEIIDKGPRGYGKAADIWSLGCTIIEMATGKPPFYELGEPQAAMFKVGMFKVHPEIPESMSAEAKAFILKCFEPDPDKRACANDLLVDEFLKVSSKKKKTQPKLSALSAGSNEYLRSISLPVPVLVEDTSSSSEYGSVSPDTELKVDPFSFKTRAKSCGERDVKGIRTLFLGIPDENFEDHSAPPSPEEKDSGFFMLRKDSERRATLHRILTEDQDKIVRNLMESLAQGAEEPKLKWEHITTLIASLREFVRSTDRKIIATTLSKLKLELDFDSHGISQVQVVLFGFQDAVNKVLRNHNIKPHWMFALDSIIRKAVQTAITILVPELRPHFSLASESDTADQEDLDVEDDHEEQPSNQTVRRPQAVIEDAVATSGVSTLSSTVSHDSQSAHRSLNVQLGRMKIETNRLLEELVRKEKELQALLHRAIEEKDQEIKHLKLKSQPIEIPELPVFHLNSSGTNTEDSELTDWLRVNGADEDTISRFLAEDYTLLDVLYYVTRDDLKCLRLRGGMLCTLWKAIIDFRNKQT
To be noted: singlicate. An excerpt: (§1) Table S4. Profiling of two compounds at two concentrations against 320 wild-type protein kinases; singlicate measurement; Residual activities (% of control).

Assay [2] concerns the target T2, 320 wild-type protein kinases (Homo sapiens, UniProt Q13188).
T2 sequence (Q13188 1-491): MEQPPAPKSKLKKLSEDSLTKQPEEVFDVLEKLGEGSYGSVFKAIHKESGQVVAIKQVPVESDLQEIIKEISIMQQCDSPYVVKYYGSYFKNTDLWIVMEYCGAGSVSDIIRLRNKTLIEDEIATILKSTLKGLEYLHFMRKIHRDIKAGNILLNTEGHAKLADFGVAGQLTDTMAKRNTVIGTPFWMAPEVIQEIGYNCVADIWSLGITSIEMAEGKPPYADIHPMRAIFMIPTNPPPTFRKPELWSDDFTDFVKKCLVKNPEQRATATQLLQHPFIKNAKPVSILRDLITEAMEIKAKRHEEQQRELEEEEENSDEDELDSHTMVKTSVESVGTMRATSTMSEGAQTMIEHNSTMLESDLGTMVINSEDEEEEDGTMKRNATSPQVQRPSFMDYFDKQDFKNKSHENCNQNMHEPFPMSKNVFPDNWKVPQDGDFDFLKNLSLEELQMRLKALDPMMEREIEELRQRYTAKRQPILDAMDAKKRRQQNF
Particulars: singlicate.
Source text: as §1

Assay [3] concerns the target T3, 320 wild-type protein kinases (Homo sapiens, UniProt Q8IWQ3).
T3 sequence (Q8IWQ3 1-736): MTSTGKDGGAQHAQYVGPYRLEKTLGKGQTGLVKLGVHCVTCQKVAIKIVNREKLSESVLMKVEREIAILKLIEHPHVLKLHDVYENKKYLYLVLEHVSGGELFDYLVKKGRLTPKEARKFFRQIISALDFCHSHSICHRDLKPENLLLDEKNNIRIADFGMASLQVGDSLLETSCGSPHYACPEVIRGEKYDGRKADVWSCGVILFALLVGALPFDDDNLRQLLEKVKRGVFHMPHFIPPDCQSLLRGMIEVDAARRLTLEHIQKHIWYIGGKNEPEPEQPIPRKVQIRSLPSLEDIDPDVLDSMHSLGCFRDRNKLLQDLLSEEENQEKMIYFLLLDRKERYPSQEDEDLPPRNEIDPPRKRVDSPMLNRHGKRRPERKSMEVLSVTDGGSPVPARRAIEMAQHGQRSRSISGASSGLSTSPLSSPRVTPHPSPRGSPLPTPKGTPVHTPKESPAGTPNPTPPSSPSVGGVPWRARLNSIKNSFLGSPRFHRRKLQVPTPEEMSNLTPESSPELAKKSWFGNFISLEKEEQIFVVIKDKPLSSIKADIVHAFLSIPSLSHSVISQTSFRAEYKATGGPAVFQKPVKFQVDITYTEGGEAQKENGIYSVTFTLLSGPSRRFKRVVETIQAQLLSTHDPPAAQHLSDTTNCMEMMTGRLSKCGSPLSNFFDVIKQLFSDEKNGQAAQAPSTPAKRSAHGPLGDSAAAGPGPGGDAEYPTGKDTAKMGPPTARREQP
Particulars: singlicate.
Source text: as §1

Assay [4] has as its target 320 wild-type protein kinases (Homo sapiens, UniProt Q8IU85). Particulars: CAMK1D, singlicate.
Source text: as §1

Chain of 320 wild-type protein kinases (Homo sapiens, UniProt Q8IU85) (Q8IU85 whole entry): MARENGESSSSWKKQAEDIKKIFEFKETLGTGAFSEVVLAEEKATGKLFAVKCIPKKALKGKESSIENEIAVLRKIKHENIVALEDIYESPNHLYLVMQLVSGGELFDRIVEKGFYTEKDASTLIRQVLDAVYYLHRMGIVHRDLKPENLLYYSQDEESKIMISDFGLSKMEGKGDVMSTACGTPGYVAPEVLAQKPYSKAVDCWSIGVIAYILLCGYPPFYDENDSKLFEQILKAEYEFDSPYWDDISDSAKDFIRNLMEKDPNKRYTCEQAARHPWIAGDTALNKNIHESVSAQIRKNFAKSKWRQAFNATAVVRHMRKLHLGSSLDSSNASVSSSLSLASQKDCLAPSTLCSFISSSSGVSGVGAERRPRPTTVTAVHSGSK

As to `C#Cc1cc(Nc2ncnc3cc(I)ccc23)ccc1Cl` [Compound 41], the Residual activity in assay [1] (ASK1, 1.0E-06 M) is reported as 99 % of control; in assay [1] (ASK1, 1.0E-07 M) it was 95 % of control; in assay [2] (MST2, 1.0E-06 M), 102 % of control; in assay [2] (MST2, 1.0E-07 M), 113 % of control; in assay [3] (BRSK2, 1.0E-06 M) it was 100 % of control; in assay [3] (BRSK2, 1.0E-07 M), 98 % of control. The Residual activity in assay [4] (1.0E-06 M) is 77 % of control; in assay [4] (1.0E-07 M), 86 % of control.
As to `C#Cc1cc(Nc2ncnc3cc(OC)c(OC)cc23)ccc1Cl` [Compound 45], the Residual activity is 99 % of control in assay [1] (ASK1, 1.0E-06 M); 93 % of control in assay [1] (ASK1, 1.0E-07 M); 102 % of control in assay [2] (MST2, 1.0E-06 M); 103 % of control in assay [2] (MST2, 1.0E-07 M); 101 % of control in assay [3] (BRSK2, 1.0E-06 M); 106 % of control in assay [3] (BRSK2, 1.0E-07 M). Also, the Residual activity in assay [4] (1.0E-06 M) was 84 % of control; in assay [4] (1.0E-07 M) it was 99 % of control.
